The source made the active and inactive calls. The calls are words filed in the database; no cut-off is given here.
Experiments:
[1] = Binding affinity to GGTase-1 by NBD fluorescence assay
[2] = Binding affinity to RabGGTase by NBD fluorescence assay
[3] = Binding affinity to RabGGTase assessed as prenylation of Rab7 by SDS PAGE
[4] = Binding affinity to RabGGTase assessed as prenylation of Rab27 by SDS PAGE
[5] = Binding affinity to FTase assessed as prenylation of Ki-Ras by SDS PAGE
[6] = Binding affinity to GGTase-1 assessed as prenylation of RhoA by SDS PAGE
[7] = Binding affinity to FTase by X-ray crystallography
[8] = test system: Protein farnesyltransferase subunit beta (Homo sapiens), P49356 [W102T,Y154T]; assay: Binding affinity to FTase W102T/Y154T mutant assessed as prenylation of Ki-Ras by Western blot analysis
[9] = test system: Protein farnesyltransferase subunit beta (Homo sapiens), P49356 [W102T,Y154T]; assay: Binding affinity to FTase W102T/Y154T mutant assessed as prenylation of CFP-CAAX by Western blot analysis
[10] = test system: Protein farnesyltransferase subunit beta (Homo sapiens), P49356 [W102T,Y154T]; assay: Binding affinity to FTase W102T/Y154T mutant assessed as prenylation of Ki-Ras by ESI-MS analysis
[11] = test system: Protein farnesyltransferase subunit beta (Homo sapiens), P49356 [W102T,Y154T]; assay: Binding affinity to FTase W102T/Y154T mutant assessed as prenylation of CFP-CAAX by ESI-MS analysis
[12] = test system: Protein farnesyltransferase subunit beta (Homo sapiens), P49356 [W102T]; assay: Binding affinity to FTase W102T mutant assessed as prenylation of Ki-Ras by Western blot analysis
[13] = test system: Protein farnesyltransferase subunit beta (Homo sapiens), P49356 [W102T]; assay: Binding affinity to FTase W102T mutant assessed as prenylation of CFP-CAAX by Western blot analysis
[14] = test system: Protein farnesyltransferase subunit beta (Homo sapiens), P49356 [W102T]; assay: Binding affinity to FTase W102T mutant assessed as prenylation of Ki-Ras by ESI-MS analysis
[15] = test system: Protein farnesyltransferase subunit beta (Homo sapiens), P49356 [W102T]; assay: Binding affinity to FTase W102T mutant assessed as prenylation of CFP-CAAX by ESI-MS analysis
[16] = test system: Protein farnesyltransferase subunit beta (Homo sapiens), P49356 [Y154T]; assay: Binding affinity to FTase Y154T mutant assessed as prenylation of Ki-Ras by Western blot analysis
[17] = test system: Protein farnesyltransferase subunit beta (Homo sapiens), P49356 [Y154T]; assay: Binding affinity to FTase Y154T mutant assessed as prenylation of CFP-CAAX by Western blot analysis
[18] = test system: Protein farnesyltransferase subunit beta (Homo sapiens), P49356 [Y154T]; assay: Binding affinity to FTase Y154T mutant assessed as prenylation of Ki-Ras by ESI-MS analysis
[19] = test system: Protein farnesyltransferase subunit beta (Homo sapiens), P49356 [Y154T]; assay: Binding affinity to FTase Y154T mutant assessed as prenylation of CFP-CAAX by ESI-MS analysis
[20] = test system: Protein farnesyltransferase subunit beta (Homo sapiens), P49356 [W102T,Y365F]; assay: Binding affinity to FTase W102T/Y365F mutant assessed as prenylation of Ki-Ras by Western blot analysis
[21] = test system: Protein farnesyltransferase subunit beta (Homo sapiens), P49356 [W102T,Y365F]; assay: Binding affinity to FTase W102T/Y365F mutant assessed as prenylation of CFP-CAAX by Western blot analysis
[22] = test system: Protein farnesyltransferase subunit beta (Homo sapiens), P49356 [W102T,Y365F]; assay: Binding affinity to FTase W102T/Y365F mutant assessed as prenylation of Ki-Ras by ESI-MS analysis
[23] = test system: Protein farnesyltransferase subunit beta (Homo sapiens), P49356 [W102T,Y365F]; assay: Binding affinity to FTase W102T/Y365F mutant assessed as prenylation of CFP-CAAX by ESI-MS analysis
[24] = test system: Geranylgeranyl transferase type-1 subunit beta (Homo sapiens), P53609 [Y126T]; assay: Binding affinity to GGTase-1 Y126T mutant assessed as prenylation of RhoA GTPase by Western blot method
[25] = Binding affinity to GGTase-1 F53Y/Y126T mutant assessed as prenylation of RhoA GTPase by Western blot method
[26] = Binding affinity to GGTase-1 F53Y/Y126T mutant assessed as prenylation of dansyl-labeled GCVLS by fluorescence based assay
[27] = Binding affinity to GGTase-1 F53Y/Y126T mutant assessed as prenylation of dansyl-labeled GCVLL by fluorescence based assay
COS-7 [28] = assay: Binding affinity to wild type FTase in african green monkey COS7 lysate assessed as prenylation of CFP-CAAX by Western blot method
[29] = test system: Protein farnesyltransferase subunit beta (Homo sapiens), P49356 [W102T,Y154T]; assay: Binding affinity to FTase W102T/Y154T mutant in african green monkey COS7 lysate assessed as prenylation of CFP-CAAX by Western blot method; details: COS-7
[30] = test system: Protein farnesyltransferase subunit beta (Homo sapiens), P49356 [W102T,Y154T,Y205T]; assay: Binding affinity to FTase W102T/Y154T/Y205T mutant in african green monkey COS7 lysate assessed as prenylation of CFP-CAAX by Western blot method; details: COS-7
COS-7 [31] = assay: Binding affinity to GGTase-1 F53Y/Y126T mutant in african green monkey COS7 lysate assessed as prenylation of RhoA by Western blot method
[32] = test system: Geranylgeranyl transferase type-1 subunit beta (Homo sapiens), P53609 [F52Y,F53Y,Y126T]; assay: Binding affinity to GGTase-1 F52Y/F53Y/Y126T mutant in african green monkey COS7 lysate assessed as prenylation of RhoA by Western blot method; details: COS-7
[33] = test system: Protein farnesyltransferase subunit beta (Homo sapiens), P49356 [W102T,Y154T,Y205T]; assay: Binding affinity at FTase W102T/Y154T/Y205T mutant in african green monkey COS7 lysate assessed as protein prenylation by two-dimensional SDS-PAGE method; details: COS-7
COS-7 [34] = assay: Binding affinity to GGTase-1 F53Y/Y126T mutant in african green monkey COS7 lysate assessed as protein prenylation by two-dimensional SDS-PAGE method
COS-7 [35] = assay: Binding affinity to RabGGTase in african green monkey COS7 lysate assessed as prenylation of Rab by two-dimensional SDS-PAGE method
[36] = test system: Geranylgeranyl transferase type-1 subunit beta (Homo sapiens), P53609 [F52Y,Y126T]; assay: Binding affinity to GGTase-1 F52Y/Y126T mutant assessed as prenylation of RhoA GTPase by Western blot method
Geranylgeranyl transferase type-1 subunit beta (Homo sapiens), P53609 [F52Y,Y126T], sequence (P53609 whole entry F52Y/Y126T): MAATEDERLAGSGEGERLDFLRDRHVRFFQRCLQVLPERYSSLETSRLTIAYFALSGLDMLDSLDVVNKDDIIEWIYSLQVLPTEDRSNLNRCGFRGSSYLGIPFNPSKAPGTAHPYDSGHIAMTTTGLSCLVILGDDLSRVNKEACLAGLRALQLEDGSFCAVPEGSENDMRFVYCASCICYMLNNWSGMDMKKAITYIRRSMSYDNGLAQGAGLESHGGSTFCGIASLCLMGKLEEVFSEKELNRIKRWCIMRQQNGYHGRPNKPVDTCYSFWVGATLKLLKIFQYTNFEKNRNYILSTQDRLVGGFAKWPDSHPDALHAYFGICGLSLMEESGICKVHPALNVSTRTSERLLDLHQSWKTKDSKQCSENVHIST

Protein farnesyltransferase subunit beta (Homo sapiens), P49356 [W102T,Y365F], sequence (P49356 whole entry W102T/Y365F): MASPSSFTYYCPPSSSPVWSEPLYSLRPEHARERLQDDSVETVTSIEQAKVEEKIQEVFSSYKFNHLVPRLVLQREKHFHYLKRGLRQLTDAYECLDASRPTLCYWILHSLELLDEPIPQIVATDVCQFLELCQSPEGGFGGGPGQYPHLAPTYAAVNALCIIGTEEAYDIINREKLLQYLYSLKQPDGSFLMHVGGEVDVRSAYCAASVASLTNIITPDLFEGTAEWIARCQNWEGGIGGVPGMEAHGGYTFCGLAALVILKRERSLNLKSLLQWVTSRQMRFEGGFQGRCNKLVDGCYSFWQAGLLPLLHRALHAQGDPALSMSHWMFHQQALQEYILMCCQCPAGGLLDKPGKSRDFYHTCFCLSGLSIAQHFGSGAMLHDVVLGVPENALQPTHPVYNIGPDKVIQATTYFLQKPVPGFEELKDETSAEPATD
Protein farnesyltransferase subunit beta (Homo sapiens), P49356 [W102T], sequence (P49356 whole entry W102T): as the sequence (P49356 whole entry W102T/Y365F) above, with F365Y counted along it
Protein farnesyltransferase subunit beta (Homo sapiens), P49356 [W102T,Y154T], sequence (P49356 whole entry W102T/Y154T): as the sequence (P49356 whole entry W102T/Y365F) above, with Y154T, F365Y counted along it
Protein farnesyltransferase subunit beta (Homo sapiens), P49356 [Y154T], sequence (P49356 whole entry Y154T): as the sequence (P49356 whole entry W102T/Y365F) above, with T102W, Y154T, F365Y counted along it
Protein farnesyltransferase subunit beta (Homo sapiens), P49356 [W102T,Y154T,Y205T], sequence (P49356 whole entry W102T/Y154T/Y205T): as the sequence (P49356 whole entry W102T/Y365F) above, with Y154T, Y205T, F365Y counted along it
Geranylgeranyl transferase type-1 subunit beta (Homo sapiens), P53609 [F52Y,F53Y,Y126T], sequence (P53609 whole entry F52Y/F53Y/Y126T): as the sequence (P53609 whole entry F52Y/Y126T) above, with F53Y counted along it
Geranylgeranyl transferase type-1 subunit beta (Homo sapiens), P53609 [Y126T], sequence (P53609 whole entry Y126T): as the sequence (P53609 whole entry F52Y/Y126T) above, with Y52F counted along it

- Kd [1]: 45 nM
- Kd [2]: 2.2 nM
- Activity [3]: Active
- Activity [4]: Active
- Activity [5]: inactive
- Activity [6]: inactive
- Activity [7]: Active
- Activity [8]: Active
- Activity [9]: Active
- Activity [10]: Active
- Activity [11]: Active
- Activity [12]: inactive
- Activity [13]: inactive
- Activity [14]: inactive
- Activity [15]: inactive
- Activity [16]: inactive
- Activity [17]: inactive
- Activity [18]: inactive
- Activity [19]: inactive
- Activity [20]: inactive
- Activity [21]: inactive
- Activity [22]: inactive
- Activity [23]: inactive
- Activity [24]: Active
- Activity [25]: Active
- Activity [26]: inactive
- Activity [27]: inactive
- Activity [29]: Active
- Activity [30]: Active
- Activity [32]: Active
- Activity [33]: Active
- Activity (COS-7 [34]): Active
- Activity (COS-7 [35]): Active
- Activity [36]: inactive
SMILES: C/C(=C\COP(=O)(O)OP(=O)(O)O)CC/C=C(\C)CNC(=O)CCCC[C@@H]1SC[C@@H]2NC(=O)N[C@@H]21 [biotin-geranylpyrophosphate]
- Activity (COS-7 [28]): Active
- Activity (COS-7 [31]): Active

From ChEMBL document CHEMBL1221222, “Analysis of the eukaryotic prenylome by isoprenoid affinity tagging” (Nat Chem Biol, 2009)
